Assay results published in patent publication US12180518B2, “RNA polymerase variants for co-transcriptional capping” (priority 2019, dated 2024).

What was measured:
Assay type in all cases: biochemical, bacteriophage T7
[1] = biological target: T7 RNA polymerase variant G47A/P657W+C-terminal G (P657W), SEQ ID NO: 60 (Escherichia phage T7, UniProt P00573, G47A/P657W); test: GAG/e6A/m6A cap analog incorporation in IVT reactions, LC-MS % capped RNA (P657W); settings: 5 mM of each NTP
Procedure: (§1) In vitro transcription reactions were performed using DNA template, one of three cap analogs (GAG cap, m6A cap, and e6A cap) at varying concentrations, and (1) a G47A+C-terminal G RNA polymerase variant (control polymerase variant; G47A+C-terminal G), (2) a G47A/D506W+C-terminal G RNA polymerase variant (D506W), (3) a G47A/S628W+C-terminal G RNA polymerase variant (S628W), (4) a G47A/D653W+C-terminal G RNA polymerase variant (D653W), and (5) a G47A/P657W+C-terminal G RNA polymerase variant (P657W). IVT reactions using the m6A and e6A cap analogs were incorporated using a DNA template that encodes for a 5′A followed by G. Following the IVT reactions, each experiment was subjected to LC-MS to determine the % capped RNA (i.e., percent of transcribed RNA comprising a cap).
(§2) Conversely, even at 5 mM e6A, the control variant provided ˜40% of total RNA with incorporated e6A.
(§3) Conversely, even at 5 mM m6A, the control variant provided less than 30% of total RNA with incorporated m6A.

[2] = biological target: T7 RNA polymerase variant G47A/D653W+C-terminal G (D653W), SEQ ID NO: 59 (Escherichia phage T7, UniProt P00573, D653W/G47A); test: GAG/e6A/m6A/GGAG cap analog incorporation in IVT reactions, LC-MS % capped RNA (D653W)
T7 RNA polymerase variant G47A/D653W+C-terminal G (D653W), SEQ ID NO: 59, sequence (P00573 other isoform, or with tags, fused parts or gaps G47A/D653W): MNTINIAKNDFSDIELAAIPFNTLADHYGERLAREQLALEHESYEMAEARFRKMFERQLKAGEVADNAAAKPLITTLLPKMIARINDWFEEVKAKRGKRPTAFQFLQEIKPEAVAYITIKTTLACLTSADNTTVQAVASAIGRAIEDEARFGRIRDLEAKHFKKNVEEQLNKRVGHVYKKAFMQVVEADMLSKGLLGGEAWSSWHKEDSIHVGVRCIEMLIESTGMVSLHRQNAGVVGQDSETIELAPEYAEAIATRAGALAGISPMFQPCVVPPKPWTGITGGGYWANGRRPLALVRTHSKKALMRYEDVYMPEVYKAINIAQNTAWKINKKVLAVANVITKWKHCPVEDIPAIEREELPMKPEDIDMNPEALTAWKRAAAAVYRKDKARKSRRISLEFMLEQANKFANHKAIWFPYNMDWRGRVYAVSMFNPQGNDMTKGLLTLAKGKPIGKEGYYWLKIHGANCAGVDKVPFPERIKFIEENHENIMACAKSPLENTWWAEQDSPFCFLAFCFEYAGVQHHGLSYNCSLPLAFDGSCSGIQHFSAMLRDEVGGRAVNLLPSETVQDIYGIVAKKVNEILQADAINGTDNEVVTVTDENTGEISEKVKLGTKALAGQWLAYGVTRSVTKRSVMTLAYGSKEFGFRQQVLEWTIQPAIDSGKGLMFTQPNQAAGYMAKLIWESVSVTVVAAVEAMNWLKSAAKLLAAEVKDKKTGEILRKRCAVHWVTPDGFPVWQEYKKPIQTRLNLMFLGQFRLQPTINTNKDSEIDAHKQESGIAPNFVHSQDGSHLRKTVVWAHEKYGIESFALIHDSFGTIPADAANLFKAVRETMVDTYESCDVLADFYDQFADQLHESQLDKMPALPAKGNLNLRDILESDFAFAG
Procedure: as §1, §2, §3
Conversely, even at 7.5 mM GGAG tetranuc, the control variant provided less than 70% of total RNA with incorporated GGAG.

[3] = biological target: T7 RNA polymerase variant G47A/S628W+C-terminal G (S628W), SEQ ID NO: 58 (Escherichia phage T7, UniProt P00573, G47A/S628W); test: GAG/e6A/m6A cap analog incorporation in IVT reactions, LC-MS % capped RNA (S628W); settings: 5 mM of each NTP
T7 RNA polymerase variant G47A/S628W+C-terminal G (S628W), SEQ ID NO: 58, sequence (P00573 other isoform, or with tags, fused parts or gaps G47A/S628W): as the sequence (P00573 other isoform, or with tags, fused parts or gaps G47A/D653W) above, with S628W, W653D counted along it
Procedure: as §1, §2, §3

[4] = biological target: T7 RNA polymerase variant G47A/D506W+C-terminal G (D506W), SEQ ID NO: 57 (Escherichia phage T7, UniProt P00573, D506W/G47A); test: GAG/e6A/m6A cap analog incorporation in IVT reactions, LC-MS % capped RNA (D506W); settings: 5 mM of each NTP
T7 RNA polymerase variant G47A/D506W+C-terminal G (D506W), SEQ ID NO: 57, sequence (P00573 other isoform, or with tags, fused parts or gaps G47A/D506W): as the sequence (P00573 other isoform, or with tags, fused parts or gaps G47A/D653W) above, with D506W, W653D counted along it
Procedure: as §1, §2, §3

[5] = EC50 = concentration for 50% cap incorporation, vs G47A+C-terminal G

T7 RNA polymerase variant G47A/P657W+C-terminal G (P657W), SEQ ID NO: 60, sequence (P00573 other isoform, or with tags, fused parts or gaps G47A/P657W): as the sequence (P00573 other isoform, or with tags, fused parts or gaps G47A/D653W) above, with W653D, P657W counted along it

CO[C@@H]1[C@H](OP(=O)(O)OC[C@H]2O[C@@H](n3cnc4c(=O)[nH]c(N)nc43)[C@H](O)[C@@H]2O)[C@@H](COP(=O)(O)OP(=O)(O)OP(=O)([O-])OC[C@H]2O[C@@H](n3c[n+](C)c4c(=O)[nH]c(N)nc43)[C@H](O)[C@@H]2O)O[C@H]1n1cnc2c(N)ncnc21 [GAG cap]
fold improvement (reduction) in EC50 for GAG cap incorporation, relative to the control variant [1, 5]: 2.27 fold
EC50 for GAG cap incorporation, relative to the control variant (in words) ([2]; 5 mM of each NTP, vs G47A+C-terminal G): significant improvement
fold improvement (reduction) in EC50 for GAG cap incorporation, relative to the control variant ([2]; 7.5 mM of each NTP, FIG. 4E, vs G47A+C-terminal G): 12.3 fold
fold improvement (reduction) in EC50 for GAG cap incorporation, relative to the control variant [3, 5]: 1.45 fold
fold improvement (reduction) in EC50 for GAG cap incorporation, relative to the control variant [4, 5]: 1.28 fold

CO[C@@H]1[C@H](OP(=O)(O)OC[C@H]2O[C@@H](n3cnc4c(N)ncnc43)[C@H](O)[C@@H]2OP(=O)(O)OC[C@H]2O[C@@H](n3cnc4c(=O)[nH]c(N)nc43)[C@H](O)[C@@H]2O)[C@@H](COP(=O)(O)OP(=O)(O)OP(=O)([O-])OC[C@H]2O[C@@H](n3c[n+](C)c4c(=O)[nH]c(N)nc43)[C@H](O)[C@@H]2O)O[C@H]1n1cnc2c(=O)[nH]c(N)nc21 [GGAG tetranuc]
effective concentration of GGAG tetranuc cap analog for cap incorporation, relative to control variant (in words) ([2]; 7.5 mM of each NTP, FIG. 7): lesser effective concentrations

CCNc1ncnc2c1ncn2[C@@H]1O[C@H](COP(=O)(O)OP(=O)(O)OP(=O)([O-])OC[C@H]2O[C@@H](n3c[n+](C)c4c(=O)[nH]c(N)nc43)[C@H](O)[C@@H]2O)[C@@H](OP(=O)(O)OC[C@H]2O[C@@H](n3cnc4c(=O)[nH]c(N)nc43)[C@H](O)[C@@H]2O)[C@H]1OC [e6A cap, m^7Gpppe^6A2′OmepG]
effective concentration of e6A cap analog for cap incorporation, relative to control variant (in words) ([1]; FIGS. 5A-5D): lesser effective concentrations
effective concentration of e6A cap analog for cap incorporation, relative to control variant (in words) ([2]; 5 mM of each NTP, FIGS. 5A-5D): lesser effective concentrations
effective concentration of e6A cap analog for cap incorporation, relative to control variant (in words) ([3]; FIGS. 5A-5D): lesser effective concentrations
effective concentration of e6A cap analog for cap incorporation, relative to control variant (in words) ([4]; FIGS. 5A-5D): lesser effective concentrations

CNc1ncnc2c1ncn2[C@@H]1O[C@H](COP(=O)(O)OP(=O)(O)OP(=O)([O-])OC[C@H]2O[C@@H](n3c[n+](C)c4c(=O)[nH]c(N)nc43)[C@H](O)[C@@H]2O)[C@@H](OP(=O)(O)OC[C@H]2O[C@@H](n3cnc4c(=O)[nH]c(N)nc43)[C@H](O)[C@@H]2O)[C@H]1OC [m6A cap, m^7Gpppm^6A2′OmepG]
effective concentration of m6A cap analog for cap incorporation, relative to control variant (in words) ([1]; FIGS. 6A-6D): lesser effective concentrations
effective concentration of m6A cap analog for cap incorporation, relative to control variant (in words) ([2]; 5 mM of each NTP, FIGS. 6A-6D): lesser effective concentrations
effective concentration of m6A cap analog for cap incorporation, relative to control variant (in words) ([3]; FIGS. 6A-6D): lesser effective concentrations
effective concentration of m6A cap analog for cap incorporation, relative to control variant (in words) ([4]; FIGS. 6A-6D): lesser effective concentrations
